This is an account of results in article PMC6627486, “Ipomoeassin F Binds Sec61α to Inhibit Protein Translocation” (Journal of the American Chemical Society, 2019).

Like-named read-outs stand apart in the source and are kept apart here.

Test [1] deals with HEK S82P. Description: Alamar Blue viability, HEK293 expressing Sec61α S82P. The format is cell-based, human. As to conditions: read-out: cell viability IC50. The protocol:
(§1) AlamarBlue Cytotoxicity Assay […]
Compounds were diluted from a DMSO stock into culture medium as described above. Cells were treated for 96 h, then viability measured with AlamarBlue, detected using the conditions described but with a BMG Fluostar Optima Microplate Reader. The percentage of viability compared to the negative control (DMSO-treated cells) was determined. GraphPad Prism 6 software was used to make a plot of % viability versus sample […]
HCT116 and HEK293T. Viable cells were counted using an automated cell counter (BioRad TC20) before each experiment. Experiments were performed either in quadruplicate or duplicate sets. First 100µ l of HCT116 or HEK293T cells at a density of 25,000 cells/m l was seeded in black wall, clear bottom, 96-well plates (2500 cells/well) (Viewplate-96 Perkin Elmer). HEK293 FRT Trex cells were seeded in complete medium supplemented to 1 μg/ml Doxycycline to induce expression of Sec61a constructs. Cells were then incubated at 37 °C and 5% CO2 for 24 h. The compounds were dissolved in DMSO to make drug stocks (10 mM). […] Emission of each well at 620 nm was detected by a microplate reader (Perkin Elmer EnSpire) at excitation 580 nm. The percentage of viability compared to the negative control (DMSO -treated cells) was determined. […]
A general note: Resazurin is reduced to fluorescent resorufin, in cell work by metabolically active cells.

The test system of test [2] is HEK T86M. Description: Alamar Blue viability, HEK293 expressing Sec61α T86M. The format is cell-based, human. As to conditions: read-out: cell viability IC50. Here is the method:
as §1
HCT116 and HEK293T. Viable cells were counted using an automated cell counter (BioRad TC20) before each experiment. Experiments were performed either in quadruplicate or duplicate sets. First 100µ l of HCT116 or HEK293T cells at a density of 25,000 cells/m l was seeded in black wall, clear bottom, 96-well plates (2500 cells/well) (Viewplate-96 Perkin Elmer). HEK293 FRT Trex cells were seeded in complete medium supplemented to 1 μg/ml Doxycycline to induce expression of Sec61a constructs. Cells were then incubated at 37 °C and 5% CO2 for 24 h. The compounds were dissolved in DMSO to make drug stocks (10 mM). The stock solutions were diluted with the complete DMEM or McCoy’s 5A culture media supplemented with DMSO to make a series of gradient fresh working solutions at equal DMSO percentage immediately prior to each test. Subsequently, the cells were treated with 25 μl of the freshly made gradient in a total volume of 125 μl/well for 72 h. After that, the media were supplemented with 10% of AlamarBlue (resazurin) stock solution. The plate was then incubated at 37 °C and 5% CO2 for another 4 h. Emission of each well at 620 nm was detected by a microplate reader (Perkin Elmer EnSpire) at excitation 580 nm. The percentage of viability compared to the negative control (DMSO -treated cells) was determined. […]

Test [3] deals with T1, Sec61-mediated protein translocation (Canis lupus familiaris, UniProt P38377).
T1 construct: ER microsomes derived from canine pancreas; from tissue; host or cells: canine pancreas ER microsomes (nuclease-treated)
T1 sequence (P38377 whole entry): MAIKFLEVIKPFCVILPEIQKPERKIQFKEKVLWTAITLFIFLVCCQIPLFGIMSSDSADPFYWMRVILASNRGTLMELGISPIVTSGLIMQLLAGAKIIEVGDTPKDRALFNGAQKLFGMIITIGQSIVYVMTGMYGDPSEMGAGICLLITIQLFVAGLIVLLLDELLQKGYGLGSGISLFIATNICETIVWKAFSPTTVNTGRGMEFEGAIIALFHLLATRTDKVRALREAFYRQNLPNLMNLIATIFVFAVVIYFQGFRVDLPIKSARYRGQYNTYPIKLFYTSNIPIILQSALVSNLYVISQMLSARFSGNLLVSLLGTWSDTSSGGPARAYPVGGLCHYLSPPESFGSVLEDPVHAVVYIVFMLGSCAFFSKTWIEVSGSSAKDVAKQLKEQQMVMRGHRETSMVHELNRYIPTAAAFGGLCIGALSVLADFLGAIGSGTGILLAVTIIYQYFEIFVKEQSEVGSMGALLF
T1 sequence (P60467 whole entry, further chain): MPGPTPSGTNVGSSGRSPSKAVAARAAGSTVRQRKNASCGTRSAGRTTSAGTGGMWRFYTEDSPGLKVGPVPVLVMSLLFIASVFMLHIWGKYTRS
T1 sequence (P60058 whole entry, further chain): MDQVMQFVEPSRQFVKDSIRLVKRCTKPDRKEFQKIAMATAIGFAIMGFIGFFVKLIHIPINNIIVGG
Description: In vitro translation and Sec61-dependent translocation into ER microsomes. The format is biochemical, canine. The source says:
(§2) In Vitro Membrane Translocation Assays.
(§3) Unless otherwise stated, all cDNAs are of human origin and as previously described: CytB5OPG2,16 GypC,17 ppαF (Saccharomyces cerevisiae),16 ppcecAOPG2 (Hyalophora cecropia),16 PPL (Bos Taurus),16 Sec61βOPG216 and VCAM1.17 Ii encodes residues 17 to 232 of the short form of human HLA class II histocompatibility antigen gamma chain (Ii; P04232, isoform 2). Linear DNA templates were generated by PCR and transcribed into RNA using T7 or SP6 polymerase (Promega).
(§4) In vitro translation and translocation into ER microsomes
(§5) Translation reactions (20 μL) were performed in nuclease-treated rabbit reticulocyte lysate (Promega) in the presence of EasyTag EXPRESS 35S Protein Labelling Mix containing [35S] methionine (Perkin Elmer) (0.533 MBq; 30.15 TBq/mmol). Amino acids minus methionine (Promega) were added to 25 µM each, […]
(§6) equivalent volume of DMSO, and nuclease-treated ER microsomes (from stock with OD280 = 44/mL) were added to 6.5% (v/v). Lastly, 10% volume of in vitro transcribed mRNA (from 200-1000 ng/μL stocks) encoding the relevant precursor protein was added and translation reactions performed for 20 min at 30°C. Following incubation with 0.1 mM puromycin for 5 min at 30°C to ensure translational termination and ribosome release, membrane-associated fractions were isolated by centrifugation through an 80 μL high-salt cushion (0.75 M sucrose, 0.5 M KOAc, 5 mM Mg(OAc)2, 50 mM Hepes-KOH, pH 7.9) at 100,000 x g for 10 min at 4°C in a TLA100 rotor (Beckmann). Membrane pellets were suspended directly in SDS (sodium dodecyl sulphate) sample buffer (0.02% bromophenol blue, 62.5 mM, 4% (w/v) SDS, 10% (v/v) glycerol, pH 7.6, 1 M dithiothreitol) and, where indicated, treated with 1,000 U of Endoglycosidase H (New England Biolabs) for 30 min at 37°C prior to analysis. All samples were denatured for 10 min at 70°C prior to resolution by SDS-PAGE (12% or 16% polyacrylamide gels, 120 V, 120 min), gels were fixed (20% MeOH, 10% AcOH) for 5 min, dried (BioRad gel dryer) for 2 h at 65°C and, following exposure to a phosphorimaging plate for 24-72 h, radiolabelled products were visualised using a Typhoon FLA-7000 (GE Healthcare).
(§7) Quantitative analysis of Ii membrane insertion was performed using AIDA v.5.0 (Raytest Isotopenmeβgeräte) whereby the ratio of the signal intensity for the 2Gly/0Gly forms was used as a read-out to estimate efficiency of integration into the ER membrane. This value was then expressed relative to the matched DMSO control in order to derive the mean relative ER insertion from three independent experiments (n=3). Statistical significance of the effectiveness of Ipom-F analogues (RM one-way ANOVA) was determined using Tukey’s multiple comparisons test. IC50 value estimates were determined using non-linear regression to fit data to a curve of variable slope (four parameters) using the least squares fitting method in which the bottom and top plateaus of the curve were defined as 0% and 100% respectively. The differences between the estimated IC50 values for the three compounds analysed were statistically significant (****) according to the extra-sum-of-squares F test. Statistical analyses and IC50 estimates were performed using Prism 7.0d (GraphPad) with statistical significance given as n.s., non - significant and ****, P < 0.0001.
(§8) U2-OS secNLuc-ATZ Secretion and Cell Viability Assays

Test [4] has as its system Sec61-mediated protein translocation. Described as above. The class given is biochemical, canine.
Text: as §2, §3, §4, §5, §6, §7, §8

In test [5] the test system is GLuc secretion in SH-SY5Y cells. Description: SH-SY5Y GLuc secretion assay. The class given is cell-based. Conditions: Homo sapiens, read-out: GLuc secretion inhibition EC50.
For test [6], the system named is several cancer-derived cell lines. More on the design: method as in PMID 19697385. As to conditions: cited from earlier work.

`CC(=C\C=C\C(C)=C\[C@H](O)[C@@H](O)C[C@H](C)O)/C=C(C)/C=C/C(=O)O[C@H]1CCCC(=O)O[C@@H]([C@@H](C)C/C(C)=C/[C@@H](C)[C@H](O)C[C@@H](C)O)C/C=C(\C)C[C@@H]1C` [mycolactone, reference compound]: the IC50 in test [1] (72 h) was 1160 nM; in test [2] (72 h), 2470 nM.

Regarding `C/C=C(\C)C(=O)O[C@@H]1[C@@H](O)[C@@H]2O[C@H]3[C@H](O[C@@H](CCCCC)CCCCCCC(=O)CCC(=O)OC[C@@H](O2)[C@H]1OC(=O)/C=C/c1ccccc1)O[C@H](C)[C@H](OC(C)=O)[C@@H]3O` [ipomoeassin F], in test [3], the IC50 was about 50 nM; the “membrane insertion of type I and type II integral membrane proteins (VCAM1, Ii)” value was “potently inhibits”; the “translocation of short secretory protein prepro-cecropin A” value is reported as “only a marginal impact”. Moreover, in test [3] (1 μM compound), the “translocation of secretory proteins bovine preprolactin and yeast prepro-alpha-factor” value was “almost completely prevented”. Also, in test [3] (type II membrane protein Ii, ER microsomes), the “inhibition of Ii membrane insertion” value is listed as “strongly inhibit membrane insertion”. The “membrane insertion of type III integral membrane protein glycophorin C” value in test [4] was “no effect”. The “in vitro integration of tail-anchored proteins (Sec61βOPG2, Cytb5OPG2)” value in test [4] (Sec61-independent control substrates) is “unaffected”. Also, in test [5], the EC50 is about 120 nM. Also, in test [1] (Homo sapiens, HEK293, 72 h), the IC50 was over 10000 nM. For the same molecule, the IC50 in test [2] (Homo sapiens, HEK293, 72 h) was determined as 13.5 ± 0.6 nM. The “IC50 values against several cancer-derived cell lines” value in test [6] was “single-digit nanomolar”.

Usually IC50 stands for the midpoint of a concentration-inhibition curve. By EC50 is commonly meant the concentration needed to bring the measured effect to its halfway point.
